Results reported in US10519177B2, “Heterocyclic compounds and uses thereof” (Plexxikon Inc., priority 2013, dated 2019).
Read-outs that look alike come from different tables or passages of the source.

What was measured:
BRD4-BD12 (1-477) = BRD4-BD12 (1-477) (Homo sapiens (Human), UniProt O60885); test: Alphascreen binding assay BRD4-BD12; conditions: BRD4(1 2) H4; read-out: Biochemical activity (IC50 μM) BRD4(1 2) H4
Outline: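 In this competition format, compounds displace a biotinylated tetra-acetyl H4 peptide from E. coli-expressed human BRD4 bromodomain constructs captured on nickel chelate beads. The reaction runs at pH 7.5 with 2 mM DTT and detergent for 1 h at room temperature before a 30 min bead step.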

MV-4-11 cells = test: Oncology cell growth assay MV-4-11 (CellTiter Glo); type: cell-based; conditions: Homo sapiens, MV4-11, 72 h, read-out: Cell activity (IC50 μM) MV-4-11 3d-Growth
Outline: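 Growth read by CellTiter Glo luminescence after 72 h compound treatment of MLL-AF4-bearing MV-4-11 cells (3000/well). Titration: 8 points, 1:3 steps, maximum 10 μM, 0.2% DMSO final. Data normalized to DMSO wells, four-parameter fit gives pIC50.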

bromodomain = test: at least one of the bromodomain cell assays of Example 57; type: cell-based; conditions: at least one of the bromodomain cell assays described in Example 57; read-out: IC50 in at least one of the bromodomain cell assays

Structure (SMILES) | IC50 (BRD4-BD12 (1-477)) [µM] | IC50 (MV-4-11 cells; MV-4-11, 3d growth) [µM] | IC50 (bromodomain) [nM] | IC50 (MV-4-11 cells) [µM]
Cc1noc(C)c1-c1cnc2c(-c3ccc(C(=O)O)cc3)cn(CC3CCCCC3)c2c1 [P-0554, 4-[1-(cyclohexylmethyl)-6-(3,5-dimethylisoxazol-4-yl)pyrrolo[3,2-b]pyridin-3-yl]benzoic acid] | < 1 | < 1 | < 10000 | 
Cn1cc(-c2cnc3c(-c4ccc(C(=O)O)cc4)cn(CC4CCC(F)(F)CC4)c3c2)ccc1=O [P-0480, 4-[1-[(4,4-difluorocyclohexyl)methyl]-6-(1-methyl-6-oxo-3-pyridyl)pyrrolo[3,2-b]pyridin-3-yl]benzoic acid] | < 1 | 1 to 10 | < 10000 | 
[2H]C([2H])(C1CC(F)(F)C1)n1cc(I)c2ncc(-c3c(C)noc3C)cc21 [P-0254, 4-[1-[dideuterio-(3,3-difluorocyclobutyl)methyl]-3-iodo-pyrrolo[3,2-b]pyridin-6-yl]-3,5-dimethyl-isoxazole] | < 1 |  | < 10000 | < 1
CCOC(=O)c1ccc(-n2cc(CC3CCC(F)(F)CC3)c3cc(-c4c(C)noc4C)cnc32)nc1 [P-0429, ethyl 6-[3-[(4,4-difluorocyclohexyl)methyl]-5-(3,5-dimethylisoxazol-4-yl)pyrrolo[2,3-b]pyridin-1-yl]pyridine-3-carboxylate] | < 1 | 1 to 10 | < 10000 | 
Cc1noc(C)c1-c1cnc2c(-c3ccc(CC(=O)O)cc3)cn([C@@H](C)c3ccccn3)c2c1 [P-0558, 2-[4-[6-(3,5-dimethylisoxazol-4-yl)-1-[(1S)-1-(2-pyridyl)ethyl]pyrrolo[3,2-b]pyridin-3-yl]phenyl]acetic acid] | < 1 | < 1 | < 10000 | 
COc1cc(-c2cn(CC3(F)CCCCC3)c3cc(-c4c(C)noc4C)cnc23)ccc1C(=O)O [P-0504, 4-[6-(3,5-dimethylisoxazol-4-yl)-1-[(1-fluorocyclohexyl)methyl]pyrrolo[3,2-b]pyridin-3-yl]-2-methoxy-benzoic acid] | < 1 | < 1 | < 10000 | 
Cc1noc(C)c1-c1cnc2c(-c3cnn(C(F)F)c3)cn(Cc3ncccn3)c2c1 [P-0350, 4-[3-[1-(difluoromethyl)pyrazol-4-yl]-1-(pyrimidin-2-ylmethyl)pyrrolo[3,2-b]pyridin-6-yl]-3,5-dimethyl-isoxazole] | < 1 |  | < 10000 | < 1
Cc1nnn(C)c1-c1cnc2c(-c3cnn(C(F)F)c3)cn(CC3(F)CCC(F)(F)CC3)c2c1 [P-0419, 3-[1-(difluoromethyl)pyrazol-4-yl]-6-(3,5-dimethyltriazol-4-yl)-1-[(1,4,4-trifluorocyclohexyl)methyl]pyrrolo[3,2-b]pyridine] | < 1 |  | < 10000 | < 1
Cc1noc(C)c1-c1cnc2c(I)cn([C@@H](C)c3ccccn3)c2c1 [P-0572, 4-[3-iodo-1-[(1S)-1-(2-pyridyl)ethyl]pyrrolo[3,2-b]pyridin-6-yl]-3,5-dimethyl-isoxazole] | < 1 | < 1 | < 10000 | 
Cc1noc(C)c1-c1cnc2c(-c3ccc(C#N)cc3)cn([C@@H](C)c3ccccn3)c2c1 [P-0573, 4-[6-(3,5-dimethylisoxazol-4-yl)-1-[(1S)-1-(2-pyridyl)ethyl]pyrrolo[3,2-b]pyridin-3-yl]benzonitrile] | < 1 | < 1 | < 10000 | 
Cc1noc(C)c1-c1cnc2c(-c3cnc(N)nc3)cn(CC3CCC(F)(F)CC3)c2c1 [P-0396, 5-[1-[(4,4-difluorocyclohexyl)methyl]-6-(3,5-dimethylisoxazol-4-yl)pyrrolo[3,2-b]pyridin-3-yl]pyrimidin-2-amine] | < 1 |  | < 10000 | < 1
Cc1noc(C)c1-c1cnc2c(-c3ccc(C(=O)O)cc3)cn([C@H](C)c3ccccc3)c2c1 [P-0583, 4-[6-(3,5-dimethylisoxazol-4-yl)-1-[(1R)-1-phenylethyl]pyrrolo[3,2-b]pyridin-3-yl]benzoic acid] | < 1 | < 1 | < 10000 | 
Cc1noc(C)c1-c1cnc2c(-c3ccccc3C(=O)O)cn(CC3(F)CCCCC3)c2c1 [P-0501, 2-[6-(3,5-dimethylisoxazol-4-yl)-1-[(1-fluorocyclohexyl)methyl]pyrrolo[3,2-b]pyridin-3-yl]benzoic acid] | < 1 | < 1 | < 10000 | 
Cc1noc(C)c1-c1cnc2c(-c3ccc(C(C)(C)C)cc3)cn([C@@H](C)c3ccccn3)c2c1 [P-0806, 4-[3-(4-tert-butylphenyl)-1-[(1S)-1-(2-pyridyl)ethyl]pyrrolo[3,2-b]pyridin-6-yl]-3,5-dimethyl-isoxazole] | < 1 | 1 to 10 | < 10000 | 
Cc1nnn(C)c1-c1cnc2c(-c3ccc(S(N)(=O)=O)cc3)cn(CC3(F)CCCCC3)c2c1 [P-0479, 4-[6-(3,5-dimethyltriazol-4-yl)-1-[(1-fluorocyclohexyl)methyl]pyrrolo[3,2-b]pyridin-3-yl]benzenesulfonamide] | < 1 | < 1 | < 10000 | 
COc1ncc(-c2cn(CC3CCC(F)(F)CC3)c3cc(-c4c(C)noc4C)cnc23)cn1 [P-0391, 4-[1-[(4,4-difluorocyclohexyl)methyl]-3-(2-methoxypyrimidin-5-yl)pyrrolo[3,2-b]pyridin-6-yl]-3,5-dimethyl-isoxazole] | < 1 |  | < 10000 | < 1
COC(=O)CCc1ccc(-c2cn(CC3CCC(F)(F)CC3)c3cc(-c4c(C)noc4C)cnc23)cc1 [P-0529, methyl 3-[4-[1-[(4,4-difluorocyclohexyl)methyl]-6-(3,5-dimethylisoxazol-4-yl)pyrrolo[3,2-b]pyridin-3-yl]phenyl]propanoate] | < 1 | < 1 | < 10000 | 
Cc1noc(C)c1-c1cnc2c(-c3ccc(C(=O)O)cc3)cn(CC3(F)CCC(F)(F)CC3)c2c1 [P-0382, 4-[6-(3,5-dimethylisoxazol-4-yl)-1-[(1,4,4-trifluorocyclohexyl)methyl]pyrrolo[3,2-b]pyridin-3-yl]benzoic acid] | < 1 |  | < 10000 | < 1
Cc1noc(C)c1-c1cnc2c(I)cn(C(c3ccccn3)c3ccccn3)c2c1 [P-0575, 4-[1-[bis(2-pyridyl)methyl]-3-iodo-pyrrolo[3,2-b]pyridin-6-yl]-3,5-dimethyl-isoxazole] | < 1 | < 1 | < 10000 | 
COc1ccc(-c2cn(CC3(F)CCCCC3)c3cc(-c4c(C)noc4C)cnc23)cn1 [P-0470, 4-[1-[(1-fluorocyclohexyl)methyl]-3-(6-methoxy-3-pyridyl)pyrrolo[3,2-b]pyridin-6-yl]-3,5-dimethyl-isoxazole] | < 1 | < 1 | < 10000 | 
COC(=O)c1ccc(-c2cn(C(c3ccccn3)c3ccccn3)c3cc(-c4c(C)noc4C)cnc23)cc1 [P-0574, methyl 4-[1-[bis(2-pyridyl)methyl]-6-(3,5-dimethylisoxazol-4-yl)pyrrolo[3,2-b]pyridin-3-yl]benzoate] | < 1 | < 1 | < 10000 | 
COC(=O)Cc1ccc(-c2cn(CC3CCCC3)c3cc(-c4c(C)noc4C)cnc23)cc1 [P-0588, methyl 2-[4-[1-(cyclopentylmethyl)-6-(3,5-dimethylisoxazol-4-yl)pyrrolo[3,2-b]pyridin-3-yl]phenyl]acetate] | < 1 | < 1 | < 10000 | 
Cc1noc(C)c1-c1cnc2c(-c3ccc(CC(=O)O)cc3)cn(CC3CCCCC3)c2c1 [P-0590, 2-[4-[1-(cyclohexylmethyl)-6-(3,5-dimethylisoxazol-4-yl)pyrrolo[3,2-b]pyridin-3-yl]phenyl]acetic acid] | < 1 | < 1 | < 10000 | 
Cc1noc(C)c1-c1cnc2c(-c3cn(C)nc3C(F)(F)F)cn(CC3CCC(F)(F)CC3)c2c1 [P-0410, 4-[1-[(4,4-difluorocyclohexyl)methyl]-3-[1-methyl-3-(trifluoromethyl)pyrazol-4-yl]pyrrolo[3,2-b]pyridin-6-yl]-3,5-dimethyl-isoxazole] | < 1 |  | < 10000 | < 1
Cc1noc(C)c1-c1cnc2c(-c3ccc(C(=O)O)cc3)cn(C(c3ccccn3)c3ccccn3)c2c1 [P-0576, 4-[1-[bis(2-pyridyl)methyl]-6-(3,5-dimethylisoxazol-4-yl)pyrrolo[3,2-b]pyridin-3-yl]benzoic acid] | < 1 | < 1 | < 10000 | 
Cc1noc(C)c1-c1cnc2c(-c3ccc(NC(=O)NC4CC4)cc3)cn([C@@H](C)c3ccccn3)c2c1 [P-0564, 1-cyclopropyl-3-[4-[6-(3,5-dimethylisoxazol-4-yl)-1-[(1S)-1-(2-pyridyl)ethyl]pyrrolo[3,2-b]pyridin-3-yl]phenyl]urea] | < 1 | < 1 | < 10000 | 
Cc1noc(C)c1-c1cnc2c(-c3ccc(C(C)(C)C(=O)O)cc3)cn(CC3CCC(F)(F)CC3)c2c1 [P-0433, 2-[4-[1-[(4,4-difluorocyclohexyl)methyl]-6-(3,5-dimethylisoxazol-4-yl)pyrrolo[3,2-b]pyridin-3-yl]phenyl]-2-methyl-propanoic acid] | < 1 | < 1 | < 10000 | 
